Values after ≈ are worked out from the molar mass of the structure shown.
Tests used:
water solubility = assay type: physicochemical; conditions: at 25° C.
arachidonic acid cascade = assay: antiinflammatory activity, keratinocyte monolayer PGE2 model; assay type: cell-based
Procedure: In order to induce inflammation, keratinocytes are incubated with the pro-inflammatory substance phorbol myristate acetate (PMA) for 24 hours in 96-well plates (15,000 cells/well). The preincubated cells (final concentration of PMA 0.1 μg/ml) are incubated with 10^−6 M indometacin (positive control) or 0.2 mM [5-hydroxy-7-methoxy-2-(4′-methoxyphenyl)-4-oxo-4H-chromen-8-yl]sulfonic acid monoester for 24 hours. The negative control used is a control culture comprising no PMA. After incubation, the content of prostaglandin E2 (PGE2) in all three samples is determined by ELISA kits.

[1] = tested on: epican gene (hyaluronic acid receptor); assay: cDNA array gene expression: epican gene; assay type: cell-based, human; conditions: detectable by cDNA array
Procedure: (§1) The influence on the expression of the said genes can be detected by means of a cDNA array.
(§2) The culture medium in cell cultures (human keratinocytes) is replaced by culture medium with (test) or without test substance (control). The cells are cultivated further for a defined time, harvested and frozen at −80°.
(§3) The RNA is extracted, where each culture comprises about 200 μg of RNA. The solution is adjusted to 1 μg/μl of RNA and treated with DNAse I in order to remove all DNA residues. The amount of RNA is adjusted to 2 μg/ml.
(§4) The mRNA is transcribed to cDNA ^32P-labelled samples and purified by chromatography.
(§5) The DNA sequences are immobilised on cDNA chip membranes and hybridised (overnight at 68° C). The membranes are washed intensively, and the radioactivity of each measurement point is measured. An increase in the radioactivity means upregulation of the corresponding RNA compared with the control.

[2] = tested on: tissue inhibitor of metalloproteinase 1 precursor (TIMP1); assay: cDNA array gene expression: TIMP1; assay type: cell-based, human; conditions: detectable by cDNA array
Procedure: as §1, §2, §3, §4, §5

transglutaminase = assay: cDNA array gene expression in human keratinocytes: transglutaminase gene; assay type: cell-based; conditions: detectable by cDNA array
Procedure: The influence on the expression of the said genes can be detected by means of a cDNA array. Expression of the Transqlutaminase Gene The culture medium in cell cultures (human keratinocytes) is replaced by culture medium with (test) or without test substance (control). The cells are cultivated further for a defined time, harvested and frozen at −80°. The RNA is extracted, where each culture comprises about 200 μg of RNA. The solution is adjusted to 1 μg/μl of RNA and treated with DNAse I in order to remove all DNA residues. The amount of RNA is adjusted to 2 μg/ml. The mRNA is transcribed to cDNA ^32P-labelled samples and purified by chromatography. The DNA sequences are immobilised on cDNA chip membranes and hybridised (overnight at 68° C). The membranes are washed intensively, and the radioactivity of each measurement point is measured. An increase in the radioactivity means upregulation of the corresponding RNA compared with the control.

For `COc1ccc(-c2cc(=O)c3c(O)cc(OC)c(OS(=O)(=O)O)c3o2)cc1` [[5-hydroxy-7-methoxy-2-(4′-methoxyphenyl)-4-oxo-4H-chromen-8-yl]sulfonic acid monoester], the solubility (water solubility) was 21 mg/mL (≈ 53.3 mM), the “effect on the arachidonic acid cascade (antiinflammatory action)” value (arachidonic acid cascade) was “inhibits the arachidonic acid cascade” and the “expression of the epican gene (hyaluronic acid receptor)” value [1] was “induces the expression”. The “synthesis of tissue inhibitor of metalloproteinase 1 precursor (TIMP1)” value [2] was “induces the synthesis” and the “gene expression of transglutaminase” value (transglutaminase) was “induction of gene expression”.

From US7588783B2, “Flavonoid derivative” (Merck Patent GmbH, priority 2003, dated 2009)
